# Test results taken from patent US20070027118A1 (priority 2005, published 2007).
# Molecular target: 11β-hsd-1 enzyme (Homo sapiens, UniProt P28845)
# Test: biochemical
# Conditions: Table 2; inhibitor 0.1 mM as printed
# Description: Percentage of inhibition was determined in a 100 mM Triethanolamine buffer, pH 8.0, 200 mM NaCl, 0.02% n-dodecyl β-D-maltoside and 5 mM β-ME. A typical reaction was carried on a Corning® u-bottom 96-well plate and is described as follows: 11β-hsd-1 enzyme (5 nM, final concentration) was pre-incubated in the presence of the inhibitor and NADPH (500 μM, final concentration) for at least 30 minutes
# in the assay buffer. When pre-incubation was completed, the reaction was initiated by adding the regenerating system (2 mM Glucose-6-Phosphate, 1U/mL Glucose-6-Phosphate dehydrogenase, and 6 mM MgCl2, all the concentration reported are final in the assay buffer), and 3H-cortisone (200 nM, final concentration). After 60 minutes, 60 μL of the assay mixture was transferred to a second 96-well plate and mixed with an equal volume of dimethylsulfoxide to stop the reaction. A 15 μL aliquot from the reaction mixture was loaded into a C-18 column (Polaris C18-A, 50×4.6 mm, 5 μ, 180 Angstrom from Varian) connected to an automated High-throughput Liquid Chromatography instrument developed by Cohesive Technologies Inc of Franklin, Mass., with a […] model 3 Radio-HPLC detector from IN/US of Tampa, Fla. The substrate and product peaks were separated by using an isocratic mixture of 43:57 methanol to water (v/v) at a flow rate of 1.0 mL/min.
# Percent Inhibition was calculated based on the following equation: (1-(3H-Cortisol peak area in the […] of inhibitor)×100).
# Sequence of 11β-hsd-1 enzyme (P28845 whole entry, species assumed): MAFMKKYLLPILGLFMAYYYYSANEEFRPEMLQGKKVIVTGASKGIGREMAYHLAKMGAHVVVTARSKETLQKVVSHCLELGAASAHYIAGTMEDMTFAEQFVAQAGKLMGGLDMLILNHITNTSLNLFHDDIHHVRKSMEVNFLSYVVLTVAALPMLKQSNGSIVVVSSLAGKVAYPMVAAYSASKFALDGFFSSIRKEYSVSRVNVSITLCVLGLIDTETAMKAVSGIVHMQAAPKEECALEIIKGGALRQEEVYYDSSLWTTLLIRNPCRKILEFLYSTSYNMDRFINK
row,SMILES,% Inh @ 0.1 mM
1,"CCc1cccc(NS(=O)(=O)N2C[C@@H]3[C@H](C2)C3(C#N)N2CCOCC2)n1 (some centres unmarked) [Example 115, (1R*5S*6S*)-6-cyano-N-(6-ethylpyridin-2-yl)-6-morpholin-4-yl-3-azabicyclo[3.1.0]hexane-3-sulfonamide]",0%

# Same assay, conditions: read-out: % Inh @ 0.1 μM
row,SMILES,inhibition at 0.1 µM
1,Cc1cccc(NS(=O)(=O)N2CCN(c3ncccc3C)CC2)n1 [Example 4],26.6%
2,Cc1cccc(NS(=O)(=O)N2CCN(c3ncccc3C(F)(F)F)CC2)n1 [Example 5],44.6%
3,Cc1ccnc(N2CCN(S(=O)(=O)Nc3cccc(C)n3)CC2)c1 [Example 6],56.2%
4,Cc1cccc(NS(=O)(=O)N2CCN(Cc3ccccc3)CC2)n1 [Example 7],17.7%
5,Cc1cccc(NS(=O)(=O)N2CCOCC2c2ccc(F)cc2)n1 (centres unmarked) [Example 21],10.6%
6,Cc1cccc(NS(=O)(=O)N2C[C@H]3C[C@@H]2CN3c2ccc(C#N)cn2)n1 [Example 24],0%
7,"O=S(=O)(Nc1ccc2ncccc2n1)N1CCC(c2ccc(C(F)(F)F)cn2)CC1 [Example 36, N-1,5-naphthyridin-2-yl-4-[5-(trifluoromethyl)pyridin-2-yl]piperidine-1-sulfonamide]",89%
8,"C[C@@H]1CN(S(=O)(=O)Nc2cccc(CO)n2)CCN1c1ncc(F)cn1 [Example 40, (3R)-4-(5-fluoropyrimidin-2-yl)-N-[6-(hydroxymethyl)pyridin-2-yl]-3-methylpiperazine-1-sulfonamide]",100%
9,Cc1cc(C)nc(NS(=O)(=O)N2CCc3ccc(S(C)(=O)=O)cc3CC2)c1 [Example 41],55%
10,Cc1cc(N)nc(NS(=O)(=O)N2CCn3c(nc4cc(C(F)(F)F)ccc43)C2)c1 [Example 47],100%
11,Cc1cc(N)nc(NS(=O)(=O)N2CCn3c(nc4cc(Cl)ccc43)C2)c1 [Example 48],100%
12,Cc1cc(N)nc(NS(=O)(=O)N2CCn3c(nc4cccc(C)c43)C2)c1 [Example 49],100%
13,Cc1cc(N)nc(NS(=O)(=O)N2CCn3c(nc4ccccc43)C2)c1 [Example 50],100%
14,Cc1cc(N)nc(NS(=O)(=O)N2CCn3cc(C(F)(F)F)nc3C2)c1 [Example 51],38%
15,Cc1cc(N)nc(NS(=O)(=O)N2CCn3c(-c4ccccc4)cnc3C2)c1 [Example 52],100%
16,Cc1cc(N)cc(NS(=O)(=O)N2CCC(Oc3ccccc3F)CC2)c1 [Example 53],100%
17,Cc1cc(N)cc(NS(=O)(=O)N2CCC(Oc3cccc(F)c3)CC2)c1 [Example 54],100%
18,Cc1cc(N)cc(NS(=O)(=O)N2CCC(Oc3ccccc3)CC2)c1 [Example 55],92%
19,Cc1cc(N)cc(NS(=O)(=O)N2CCC(C(F)(F)F)CC2)c1 [Example 56],100%
20,"C[C@H]1CN(S(=O)(=O)Nc2cccc(CO)n2)CCN1c1ccc(C#N)cn1 [Example 58, (3S)-4-(5-cyanopyridin-2-yl)-N-[6-(hydroxymethyl)pyridin-2-yl]-3-methylpiperazine-1-sulfonamide]",100%
21,"CC1CN(c2ccc(C#N)cn2)CCN1S(=O)(=O)Nc1cccc(CO)n1 (centres unmarked) [Example 59, 4-(5-cyanopyridin-2-yl)-N-[6-(hydroxymethyl)pyridin-2-yl]-2-methylpiperazine-1-sulfonamide]",94.2%
22,"CCc1cccc(NS(=O)(=O)N2CCC(c3ncccn3)CC2)n1 [Example 60, N-(6-ethylpyridin-2-yl)-4-pyrimidin-2-ylpiperidine-1-sulfonamide]",7%
23,CCc1cccc(NS(=O)(=O)N2CCN(C(C)C)CC2)n1 [Example 61],0%
24,CCc1cccc(NS(=O)(=O)N2CCN(C3CCCCC3)CC2)n1 [Example 62],0%
25,CCc1cccc(NS(=O)(=O)N2CCC3(CCc4cc(Cl)ccc4O3)CC2)n1 [Example 63],40%
26,CCc1cccc(NS(=O)(=O)N2CCC3(CCc4cc(C)ccc4O3)CC2)n1 [Example 64],5.4%
27,CCc1cccc(NS(=O)(=O)N2CCC3(CC2)CC(=O)c2cc(Cl)ccc2O3)n1 [Example 65],4.7%
28,CCc1cccc(NS(=O)(=O)N2CCC3(CCc4ccccc4O3)CC2)n1 [Example 66],42.8%
29,CCc1cccc(NS(=O)(=O)N2CCC(c3c[nH]c4ccccc34)CC2)n1 [Example 67],62.6%
30,CCc1cccc(NS(=O)(=O)N2C[C@@H]3C[C@H]2CN3c2ccccc2)n1 [Example 69],5.6%

# Same assay, conditions: read-out: % Inh @ 0.1 mM
row,SMILES,inhibition
1,"Cc1ccc(C2(C)CN(S(=O)(=O)Nc3cccc(C)n3)CCO2)cc1 (centres unmarked) [Example 70, 2-methyl-2-(4-methylphenyl)-N-(6-methylpyridin-2-yl)morpholine-4-sulfonamide]",85.3%
2,"CCc1cccc(NS(=O)(=O)N2CCCC(c3nc(C)no3)C2)n1 (centres unmarked) [Example 72, N-(6-ethylpyridin-2-yl)-3-(2-methyl-124-oxadiazol-5-yl)piperidine-1-sulfonamide]",56.7%
3,"CCc1cccc(NS(=O)(=O)N2CCC(c3cccc(C(=O)Nc4ccccn4)c3)CC2)n1 [Example 73, 3-(1-{[(6-ethylpyridin-2-yl)amino]sulfonyl}pipendin-4-yl)-N-pyridin-2-ylbenzamide]",49.6%
4,"CCc1cccc(NS(=O)(=O)N2CCC(c3cccc(C(N)=O)c3)CC2)n1 [Example 75, 3-(1-{[(6-ethylpyridin-2-yl)amino]sulfonyl}piperidin-4-yl)benzamide]",45.6%
5,"CCc1cccc(NS(=O)(=O)N2CCC(c3ccc(C(=O)NC)cc3)CC2)n1 [Example 76, 4-(1-{[(6-ethylpyridin-2-yl)amino]sulfonyl}piperidin-4-yl)-N-methylbenzamide]",34.4%
6,"CCc1cccc(NS(=O)(=O)N2CCC(c3ccc(C(=O)N4CCOCC4)cc3)CC2)n1 [Example 77, N-(6-ethylpyridin-2-yl)-4-[4-(morpholin-4-ylcarbonyl)phenyl]piperi-din-1-sulfonamide]",48.4%
7,"CCc1cccc(NS(=O)(=O)N2CCC(c3ccc(C(=O)NC4CC4)cc3)CC2)n1 [Example 78, N-cyclopropyl-4-(1-{[(6-ethylpyridin-2-yl)amino]sulfonyl}piperi-din-4-yl)benzamide]",64.2%
8,"CCc1cccc(NS(=O)(=O)N2CCC(c3cccc(C(=O)N(CC)CC)c3)CC2)n1 [Example 79, NN-diethy-3-(1-{[(6-ethylpyridin-2-yl)amino]sulfonyl}piperidin-4-yl)benzamide]",51.1%
9,"CCc1cccc(NS(=O)(=O)N2CCC(COCc3ccccc3F)CC2)n1 [Example 92, N-(6-ethylpyridin-2-yl)-4-{[(2-fluorobenzyl)oxy]meth-yl}piperidine-1-sulfonamide]",67.5%
10,"CCc1cccc(NS(=O)(=O)N2CCC(COCc3cccc(OC)c3)CC2)n1 [Example 94, N-(6-ethylpyridin-2-yl)-4-{[(3-methoxybenzyl)oxy]-methyl}pipendine-1-sulfonamide]",40.7%
11,"CCc1cccc(NS(=O)(=O)N2CCC(n3c(C)nnc3CC)CC2)n1 [Example 107, 4-(3-ethyl-5-methyl-4H-124-triazol-4-yl)-N-(6-ethyl-pyridin-2-yl)piperidine-1-sulfonamide]",0%
12,"CCOCC1CCN(S(=O)(=O)Nc2cccc(CC)n2)CC1 [Example 109, 4-(ethoxymethyl)-N-(6-ethylpyridin-2-yl)pipendine-1-sulfonamide]",58.7%
13,"CCc1cccc(NS(=O)(=O)N2CCC(Oc3ccc(C#N)cc3OC)CC2)n1 [Example 110, 4-(4-cyano-2-methoxy-phenoxy)-N-(6-ethylpyridin-2-yl)piperidine-1-sulfonamide]",8%
14,"CCCOC1CCN(S(=O)(=O)Nc2cccc(CC)n2)CC1 [Example 111, N-(6-ethylpyridin-2-yl)-4-propoxypiperidine-1-sulfonamide]",50.8%
15,"Cc1cccc(NS(=O)(=O)N2CCN(c3ccccn3)CC2)n1 [Example 126, N-(6-methylpyridin-2-yl)-4-pyridin-2-ylpiperazine-1-sulfonamide]",57.8%
16,"Cc1cccc(NS(=O)(=O)N2CCCCCC2)n1 [Example 130, N-(6-methylpyridin-2-yl)azepane-1-sulfonamide]",56.7%
17,"Cc1cccc(NS(=O)(=O)N2CCN(c3cc(C#N)ccn3)CC2)n1 [Example 135, 4-(4-cyanopyridin-2-yl)-N-(6-methylpyridin-2-yl)piperazine-1-sulfonamide]",29.9%
18,"CCc1cccc(NS(=O)(=O)N2CCN(Cc3c(F)cccc3F)CC(COC)C2)n1 (centres unmarked) [Example 141, 4-(26-difluorobenzyl)-N-(6-ethylpyridin-2-yl)-6-(methoxymethyl)-14-diazepane-1-sulfonamide]",13.8%
19,"CCc1cccc(NS(=O)(=O)N2CCN(C)CC(COCc3c(F)cccc3F)C2)n1 (centres unmarked) [Example 142, 6-{[(26-difluoro-benzyl)oxy]methyl)-N-(6-ethylpyridin-2-yl)-4-methyl-14-diazepane-1-sulfonamide]",5.9%
